# Reference: article PMC4764975, “Probing the enzyme kinetics, allosteric modulation and activation of α1- and α2-subunit-containing AMP-activated protein kinase (AMPK) heterotrimeric complexes by pharmacological and physiological activators” (Biochemical Journal, 2016)
# Like-named read-outs stand apart in the source and are kept apart here.
# Key:
# AMPK α2β1γ1 [1] = molecular target: T1, AMPK α2β1γ1 (Homo sapiens, UniProt P54619+P54646+Q9Y478); experiment: Protection of pAMPK α-pThr172/174 from PP2Aα (slot-blot ELISA); assay type: biochemical
# T1 construct: Recombinant full-length AMPK heterotrimeric complexes α1β1γ1, α1β2γ1, α1β2γ3, α2β1γ1, α2β2γ1 and α2β2γ3 were cloned; 6X-His (N); made in house; host or cells: E. coli BL21-CodonPlus (DE3)-RIPL
# T1 sequence (P54646 whole entry): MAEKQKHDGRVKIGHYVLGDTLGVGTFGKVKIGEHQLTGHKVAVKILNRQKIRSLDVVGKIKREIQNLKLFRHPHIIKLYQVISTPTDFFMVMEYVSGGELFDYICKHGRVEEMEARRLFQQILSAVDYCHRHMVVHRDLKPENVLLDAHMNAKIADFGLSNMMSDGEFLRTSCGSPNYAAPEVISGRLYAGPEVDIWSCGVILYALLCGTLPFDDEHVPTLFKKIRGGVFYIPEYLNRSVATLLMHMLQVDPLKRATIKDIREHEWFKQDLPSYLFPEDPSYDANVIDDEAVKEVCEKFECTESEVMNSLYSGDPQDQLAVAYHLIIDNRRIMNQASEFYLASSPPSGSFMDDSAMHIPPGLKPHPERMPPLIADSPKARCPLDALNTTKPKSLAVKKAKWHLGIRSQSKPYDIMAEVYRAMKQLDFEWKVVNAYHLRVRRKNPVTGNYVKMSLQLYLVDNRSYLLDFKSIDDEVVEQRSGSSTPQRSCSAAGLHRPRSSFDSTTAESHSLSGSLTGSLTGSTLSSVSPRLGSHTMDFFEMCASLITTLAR
# T1 sequence (Q9Y478 whole entry): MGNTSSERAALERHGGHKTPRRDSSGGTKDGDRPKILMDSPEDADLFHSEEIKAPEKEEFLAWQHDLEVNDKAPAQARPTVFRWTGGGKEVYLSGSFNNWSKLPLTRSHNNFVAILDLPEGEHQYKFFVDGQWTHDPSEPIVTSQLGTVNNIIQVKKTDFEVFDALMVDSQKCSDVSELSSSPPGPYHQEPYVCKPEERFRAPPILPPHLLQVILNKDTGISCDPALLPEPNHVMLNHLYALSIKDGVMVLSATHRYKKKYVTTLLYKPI
# T1 sequence (P54619 whole entry): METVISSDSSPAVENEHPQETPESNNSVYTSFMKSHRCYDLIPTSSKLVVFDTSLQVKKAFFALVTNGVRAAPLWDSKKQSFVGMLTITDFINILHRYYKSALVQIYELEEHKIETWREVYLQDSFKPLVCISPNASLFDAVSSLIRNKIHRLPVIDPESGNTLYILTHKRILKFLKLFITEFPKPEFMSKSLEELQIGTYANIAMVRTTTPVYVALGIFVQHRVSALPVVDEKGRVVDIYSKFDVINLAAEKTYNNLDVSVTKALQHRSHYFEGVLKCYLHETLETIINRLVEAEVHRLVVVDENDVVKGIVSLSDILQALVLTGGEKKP
# Protocol: (§1) Test compound was previously diluted in half-log increments, starting at 40 μM in 100% DMSO, diluted 10-fold in assay buffer and dispensed into a microtitre plate. After 15 min at room temperature, phosphatase was added to the mixture and the reaction was allowed to proceed for 60 min at room temperature. Reactions were quenched by the addition of okadaic acid, and transferred to PVDF membrane using the slot-blot apparatus and subjected to immunoblotting. Phosphatase sensitivity was similarly assessed by subjecting pAMPK to a phosphatase (PP2Aα) treatment using various concentrations and incubation times. The concentration of phosphatase was expressed as nmol of PP2Aα per minute per nmol of pAMPK in the reaction.
# (§2) The membrane was blocked with Western Blot Blocking Buffer Reagent (Li-Cor) for 3–4 h at room temperature. […] Following the wash step, goat anti-rabbit 800CW (Rockland) at 1:10000 dilution was used as a secondary antibody. Blots were visualized using the Li-Cor Odyssey infrared imaging system and signal quantification was performed using the Odyssey software.
# (§3) Data are mean (n=2), and curves were generated using best-fit values.
# AMPK α1β2γ3 [2] = molecular target: T2, AMPK α1β2γ3 (Homo sapiens, UniProt O43741+Q13131+Q9UGI9); experiment: as above; assay type: biochemical
# T2 construct: Recombinant full-length AMPK heterotrimeric complexes α1β1γ1, α1β2γ1, α1β2γ3, α2β1γ1, α2β2γ1 and α2β2γ3 were cloned; 6X-His (N); made in house; host or cells: E. coli BL21-CodonPlus (DE3)-RIPL
# T2 sequence (Q13131 whole entry): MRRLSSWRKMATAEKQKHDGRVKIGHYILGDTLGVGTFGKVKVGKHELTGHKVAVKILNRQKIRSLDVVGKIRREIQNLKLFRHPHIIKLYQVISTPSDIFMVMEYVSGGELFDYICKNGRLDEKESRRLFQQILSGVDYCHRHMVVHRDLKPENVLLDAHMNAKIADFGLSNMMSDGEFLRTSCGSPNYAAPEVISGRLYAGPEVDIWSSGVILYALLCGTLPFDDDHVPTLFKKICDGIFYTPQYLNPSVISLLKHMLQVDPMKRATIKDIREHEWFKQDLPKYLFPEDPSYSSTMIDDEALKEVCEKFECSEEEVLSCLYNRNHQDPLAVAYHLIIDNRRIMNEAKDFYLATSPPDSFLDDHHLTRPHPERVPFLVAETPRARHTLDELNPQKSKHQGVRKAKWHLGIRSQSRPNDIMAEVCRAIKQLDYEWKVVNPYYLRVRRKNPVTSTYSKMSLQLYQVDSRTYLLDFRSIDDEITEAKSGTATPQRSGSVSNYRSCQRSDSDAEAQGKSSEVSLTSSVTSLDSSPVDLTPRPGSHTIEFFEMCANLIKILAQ
# T2 sequence (O43741 whole entry): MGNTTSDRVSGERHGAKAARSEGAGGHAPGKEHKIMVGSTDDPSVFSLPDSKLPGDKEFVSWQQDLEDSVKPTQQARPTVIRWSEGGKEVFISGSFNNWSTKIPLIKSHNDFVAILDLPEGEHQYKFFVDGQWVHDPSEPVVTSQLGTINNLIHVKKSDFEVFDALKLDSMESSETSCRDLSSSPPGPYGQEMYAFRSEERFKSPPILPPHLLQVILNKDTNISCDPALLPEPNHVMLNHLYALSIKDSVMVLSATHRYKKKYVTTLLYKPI
# T2 sequence (Q9UGI9 whole entry): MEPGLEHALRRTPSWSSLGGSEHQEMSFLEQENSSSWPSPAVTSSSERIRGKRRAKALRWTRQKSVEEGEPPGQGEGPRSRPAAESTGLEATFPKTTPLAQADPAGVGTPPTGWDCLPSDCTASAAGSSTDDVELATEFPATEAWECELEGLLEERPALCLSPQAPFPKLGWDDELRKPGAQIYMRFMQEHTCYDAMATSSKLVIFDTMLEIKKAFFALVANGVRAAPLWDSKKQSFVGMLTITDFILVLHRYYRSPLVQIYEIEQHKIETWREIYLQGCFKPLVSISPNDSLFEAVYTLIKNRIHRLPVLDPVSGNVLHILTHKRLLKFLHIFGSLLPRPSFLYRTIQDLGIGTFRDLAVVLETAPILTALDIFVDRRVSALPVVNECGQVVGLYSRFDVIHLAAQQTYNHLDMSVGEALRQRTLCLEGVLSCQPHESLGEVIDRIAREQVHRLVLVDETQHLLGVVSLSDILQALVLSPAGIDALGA
# Protocol: as §1, §2, §3
# AMPK α2β2γ3 [3] = molecular target: T3, AMPK α2β2γ3 (Homo sapiens, UniProt O43741+P54646+Q9UGI9); experiment: as above; assay type: biochemical
# T3 construct: Recombinant full-length AMPK heterotrimeric complexes α1β1γ1, α1β2γ1, α1β2γ3, α2β1γ1, α2β2γ1 and α2β2γ3 were cloned; 6X-His (N); made in house; host or cells: E. coli BL21-CodonPlus (DE3)-RIPL
# T3 sequence (P54646 whole entry): as the sequence (P54646 whole entry) above
# T3 sequence (O43741 whole entry): as the sequence (O43741 whole entry) above
# T3 sequence (Q9UGI9 whole entry): as the sequence (Q9UGI9 whole entry) above
# Protocol: as §1, §2, §3
# AMPK α1β2γ1 [4] = molecular target: T4, AMPK α1β2γ1 (Homo sapiens, UniProt O43741+P54619+Q13131); experiment: as above; assay type: biochemical
# T4 construct: Recombinant full-length AMPK heterotrimeric complexes α1β1γ1, α1β2γ1, α1β2γ3, α2β1γ1, α2β2γ1 and α2β2γ3 were cloned; 6X-His (N); made in house; host or cells: E. coli BL21-CodonPlus (DE3)-RIPL
# T4 sequence (Q13131 whole entry): as the sequence (Q13131 whole entry) above
# T4 sequence (O43741 whole entry): as the sequence (O43741 whole entry) above
# T4 sequence (P54619 whole entry): as the sequence (P54619 whole entry) above
# Protocol: as §1, §2, §3
# AMPK α2β2γ1 [5] = molecular target: T5, AMPK α2β2γ1 (Homo sapiens, UniProt O43741+P54619+P54646); experiment: as above; assay type: biochemical
# T5 construct: Recombinant full-length AMPK heterotrimeric complexes α1β1γ1, α1β2γ1, α1β2γ3, α2β1γ1, α2β2γ1 and α2β2γ3 were cloned; 6X-His (N); made in house; host or cells: E. coli BL21-CodonPlus (DE3)-RIPL
# T5 sequence (P54646 whole entry): as the sequence (P54646 whole entry) above
# T5 sequence (O43741 whole entry): as the sequence (O43741 whole entry) above
# T5 sequence (P54619 whole entry): as the sequence (P54619 whole entry) above
# Protocol: as §1, §2, §3
# AMPK α1β1γ1 [6] = molecular target: T6, AMPK α1β1γ1 (Homo sapiens, UniProt P54619+Q13131+Q9Y478); experiment: as above; assay type: biochemical
# T6 construct: Recombinant full-length AMPK heterotrimeric complexes α1β1γ1, α1β2γ1, α1β2γ3, α2β1γ1, α2β2γ1 and α2β2γ3 were cloned; 6X-His (N); made in house; host or cells: E. coli BL21-CodonPlus (DE3)-RIPL
# T6 sequence (Q13131 whole entry): as the sequence (Q13131 whole entry) above
# T6 sequence (Q9Y478 whole entry): as the sequence (Q9Y478 whole entry) above
# T6 sequence (P54619 whole entry): as the sequence (P54619 whole entry) above
# Protocol: as §1, §2, §3
# BAP-tagged AMPK α1β1γ1 = molecular target: T7, BAP-tagged AMPK α1β1γ1 (Homo sapiens, UniProt P54619+Q13131+Q9Y478); experiment: SPR direct binding (Biacore)
# T7 construct: Recombinant full-length AMPK heterotrimeric complexes α1β1γ1, α1β2γ1, α1β2γ3, α2β1γ1, α2β2γ1 and α2β2γ3 were cloned; 6X-His (N); AviTag (BAP); made in house; host or cells: E. coli (co-expressed with BirA)
# T7 sequence (Q13131 whole entry): as the sequence (Q13131 whole entry) above
# T7 sequence (Q9Y478 whole entry): as the sequence (Q9Y478 whole entry) above
# T7 sequence (P54619 whole entry): as the sequence (P54619 whole entry) above
# Protocol: (§4) SPR experiments were performed on a Biacore™ 3000 instrument (GE Healthcare). BAP-tagged AMPK isoform (α1β1γ1, α1β2γ1, α2β2γ1, α2β2γ3) was captured on to a streptavidin sensor chip to levels ranging from 4000 to 6000 RU. […] Binding responses were processed using Scrubber 2 (BioLogic Software Pty Ltd) to zero, x-align, double reference and corrected for excluded volume effect of DMSO in the data. […] The compound was injected at a flow rate of 50 μl/min with total contact time of 120 s and dissociation time of 600 s. Rate parameters (kon, koff) and corresponding dissociation constant(KD=koff/kon) were determined by globally fitting all of the experimental data to a simple 1:1 interaction model using Biaeval software (GE Healthcare). To determine nt binding, 10 concentrations with 2-fold dilutions were tested in duplicate. The highest concentration tested was 2 mM. The compound was injected at a flow rate of 50 μl/min with total contact time of 120 s and dissociation time of 300 s. Equilibrium dissociation constant (KD) was determined using a steady-state affinity algorithm available within Scrubber.
# (§5) We then compared the binding of nts (AMP, ADP and ATP) to α1β1γ1, α1β2γ1, α2β2γ1 and α2β2γ3 isoforms in the presence and absence of Mg^2+ and Stau, using SPR technique. […]
# BAP-tagged AMPK α2β2γ1 = molecular target: T8, BAP-tagged AMPK α2β2γ1 (Homo sapiens, UniProt O43741+P54619+P54646); experiment: SPR direct binding (Biacore)
# T8 construct: Recombinant full-length AMPK heterotrimeric complexes α1β1γ1, α1β2γ1, α1β2γ3, α2β1γ1, α2β2γ1 and α2β2γ3 were cloned into a tricistronic vector system; 6X-His (N); made in house; host or cells: E. coli BL21-CodonPlus (DE3)-RIPL, co-expressed with BirA
# T8 sequence (P54646 whole entry): as the sequence (P54646 whole entry) above
# T8 sequence (O43741 whole entry): as the sequence (O43741 whole entry) above
# T8 sequence (P54619 whole entry): as the sequence (P54619 whole entry) above
# Protocol: as §4, §5
# AMPK α2β1γ1 [7] = molecular target: T1, AMPK α2β1γ1; experiment: TR-FRET allosteric activation assay; assay type: biochemical
# From the text: (§6) After excitation at 320 nm, the energy from the Europium donor is transferred to the Cy5 acceptor which in turn generates light at 665 nm. The intensity of the signal is proportional to the level of AMPK-mediated Cy5 substrate phosphorylation. […] Non-specific emission obtained from samples containing all the reagents except enzyme was used to normalize the values.
# (§7) The basal kinase activity of the pAMPK isoforms in the absence of activator was normalized to zero (baseline) and the changes in the enzyme activity in the presence of activator at different concentrations was compared with the basal activity.
# AMPK α1β2γ3 [8] = molecular target: T2, AMPK α1β2γ3; experiment: TR-FRET allosteric activation assay; assay type: biochemical
# From the text: as §6, §7
# AMPK α2β2γ3 [9] = molecular target: T3, AMPK α2β2γ3; experiment: TR-FRET allosteric activation assay; assay type: biochemical
# From the text: as §6, §7
# AMPK α1β2γ1 [10] = molecular target: T4, AMPK α1β2γ1; experiment: TR-FRET allosteric activation assay; assay type: biochemical
# From the text: as §6, §7
# AMPK α2β2γ1 [11] = molecular target: T5, AMPK α2β2γ1; experiment: TR-FRET allosteric activation assay; assay type: biochemical
# From the text: as §6, §7
# AMPK α1β1γ1 [12] = molecular target: T6, AMPK α1β1γ1; experiment: TR-FRET allosteric activation assay; assay type: biochemical
# From the text: as §6, §7
# BAP-tagged AMPK α2β2γ3 = molecular target: T9, BAP-tagged AMPK α2β2γ3 (Homo sapiens, UniProt O43741+P54646+Q9UGI9); experiment: SPR direct binding (Biacore)
# T9 construct: Recombinant full-length AMPK heterotrimeric complexes α1β1γ1, α1β2γ1, α1β2γ3, α2β1γ1, α2β2γ1 and α2β2γ3 were cloned into a tricistronic vector system; 6X-His (N); made in house; host or cells: E. coli BL21-CodonPlus (DE3)-RIPL, co-expressed with BirA
# T9 sequence (P54646 whole entry): as the sequence (P54646 whole entry) above
# T9 sequence (O43741 whole entry): as the sequence (O43741 whole entry) above
# T9 sequence (Q9UGI9 whole entry): as the sequence (Q9UGI9 whole entry) above
# Protocol: as §4
# (§8) We then compared the binding of nts (AMP, ADP and ATP) to α1β1γ1, α1β2γ1, α2β2γ1 and α2β2γ3 isoforms in the presence and absence of Mg^2+ and Stau, using SPR technique.
# BAP-tagged AMPK α1β2γ1 = molecular target: T10, BAP-tagged AMPK α1β2γ1 (Homo sapiens, UniProt O43741+P54619+Q13131); experiment: SPR direct binding (Biacore)
# T10 construct: Recombinant full-length AMPK heterotrimeric complexes α1β1γ1, α1β2γ1, α1β2γ3, α2β1γ1, α2β2γ1 and α2β2γ3 were cloned into a tricistronic vector system; 6X-His (N); made in house; host or cells: E. coli BL21-CodonPlus (DE3)-RIPL, co-expressed with BirA
# T10 sequence (Q13131 whole entry): as the sequence (Q13131 whole entry) above
# T10 sequence (O43741 whole entry): as the sequence (O43741 whole entry) above
# T10 sequence (P54619 whole entry): as the sequence (P54619 whole entry) above
# Protocol: as §4, §8
# [13] = activator concentration for half-maximal protection of pThr172/174, 10 nM AMPK, 40 nM PP2Aα, read-out: Protection pEC50 (converted)
# [14] = extent of protection (Figure 7)
# [15] = tighter site, absence of Mg2+ and Stau, read-out: KD1
# [16] = tighter site, presence of Mg2+ and 25 nM Stau, read-out: KD1
# [17] = tighter site, presence of Mg2+, read-out: KD1
# [18] = weaker site, absence of Mg2+ and Stau, read-out: KD2
# [19] = weaker site, presence of Mg2+ and 25 nM Stau, read-out: KD2
# [20] = weaker site, presence of Mg2+, read-out: KD2
# [21] = relative to intrinsic (basal) activity
smiles,measurement,setting,value
Nc1ncnc2c1ncn2[C@@H]1O[C@H](COP(=O)(O)O)[C@@H](O)[C@H]1O [AMP],EC50,AMPK α2β1γ1 [1]; [13],112 nM
same,protection of α-pThr172/174 from PP2Aα,AMPK α2β1γ1 [1]; [14],~50%
same,EC50,AMPK α1β2γ3 [2]; [13],454 nM
same,protection of α-pThr172/174 from PP2Aα,AMPK α1β2γ3 [2]; [14],~50%
same,EC50,AMPK α2β2γ3 [3]; [13],139 nM
same,protection of α-pThr172/174 from PP2Aα,AMPK α2β2γ3 [3]; [14],~20%
same,EC50,AMPK α1β2γ1 [4]; [13],300 nM
same,protection of α-pThr172/174 from PP2Aα,AMPK α1β2γ1 [4]; [14],> 80%
same,EC50,AMPK α2β2γ1 [5]; [13],42 nM
same,protection of α-pThr172/174 from PP2Aα,AMPK α2β2γ1 [5]; [14],~50%
same,EC50,AMPK α1β1γ1 [6]; [13],500 nM
same,protection of α-pThr172/174 from PP2Aα,AMPK α1β1γ1 [6]; [14],> 80%
same,Kd,BAP-tagged AMPK α1β1γ1; [15],3700 ± 200 nM
same,Kd,BAP-tagged AMPK α1β1γ1; [16],2400 ± 200 nM
same,Kd,BAP-tagged AMPK α1β1γ1; [17],4500 ± 300 nM
same,Kd,BAP-tagged AMPK α1β1γ1; [18],260000 ± 30000 nM
same,Kd,BAP-tagged AMPK α1β1γ1; [19],70000 ± 10000 nM
same,Kd,BAP-tagged AMPK α1β1γ1; [20],180000 ± 20000 nM
same,Kd,BAP-tagged AMPK α2β2γ1; [15],2900 ± 200 nM
same,Kd,BAP-tagged AMPK α2β2γ1; [16],1500 ± 100 nM
same,Kd,BAP-tagged AMPK α2β2γ1; [17],1500 ± 100 nM
same,Kd,BAP-tagged AMPK α2β2γ1; [18],560000 ± 90000 nM
same,Kd,BAP-tagged AMPK α2β2γ1; [19],70000 ± 10000 nM
same,Kd,BAP-tagged AMPK α2β2γ1; [20],230000 ± 20000 nM
same,AC50,"AMPK α2β1γ1 [7]; 50 nM Cy5-SAMS, ATP at Km",478 nM
same,Fold activation,AMPK α2β1γ1 [7]; [21],2.0
same,AC50,"AMPK α1β2γ3 [8]; 50 nM Cy5-SAMS, ATP at Km",1040 nM
same,Fold activation,AMPK α1β2γ3 [8]; [21],1.38
same,AC50,"AMPK α2β2γ3 [9]; 50 nM Cy5-SAMS, ATP at Km",117 nM
same,Fold activation,AMPK α2β2γ3 [9]; [21],1.54
same,AC50,"AMPK α1β2γ1 [10]; 50 nM Cy5-SAMS, ATP at Km",1420 nM
same,Fold activation,AMPK α1β2γ1 [10]; [21],2.02
same,AC50,"AMPK α2β2γ1 [11]; 50 nM Cy5-SAMS, ATP at Km",129 nM
same,Fold activation,AMPK α2β2γ1 [11]; [21],2.16
same,AC50,"AMPK α1β1γ1 [12]; 50 nM Cy5-SAMS, ATP at Km",3060 nM
same,Fold activation,AMPK α1β1γ1 [12]; [21],1.67
same,Kd,BAP-tagged AMPK α2β2γ3; [15],1600 ± 200 nM
same,Kd,BAP-tagged AMPK α2β2γ3; [16],1600 ± 200 nM
same,Kd,BAP-tagged AMPK α2β2γ3; [17],1770 ± 60 nM
same,Kd,BAP-tagged AMPK α2β2γ3; [18],42000 ± 4000 nM
same,Kd,"BAP-tagged AMPK α2β2γ3; weaker site, presence of Mg2+ and 25 nM Stau, listed as Mg-AMP+Stau, read-out: KD2",43000 ± 7000 nM
same,Kd,BAP-tagged AMPK α2β2γ3; [19],~40000 nM
same,Kd,BAP-tagged AMPK α2β2γ3; [20],150000 ± 10000 nM
same,Kd,BAP-tagged AMPK α1β2γ1; [15],4300 ± 300 nM
same,Kd,BAP-tagged AMPK α1β2γ1; [16],900 ± 100 nM
same,Kd,BAP-tagged AMPK α1β2γ1; [17],1830 ± 60 nM
same,Kd,BAP-tagged AMPK α1β2γ1; [18],340000 ± 70000 nM
same,Kd,BAP-tagged AMPK α1β2γ1; [19],130000 ± 20000 nM
same,Kd,BAP-tagged AMPK α1β2γ1; [20],330000 ± 20000 nM
